Where “and” joins values, the source holds several entries; their conditions need not be identical. Identical values can stand only once. Counter-ions that a name gives are not always drawn. Like-named read-outs stand apart in the source and are kept apart here.
Test system: HT29 RAMS11 overexpressing cells
Assay: High-throughput viability assay (resazurin), 119 FDA-approved anticancer drugs, RAMS11 overexpressing cells (Clone1, Clone2)
[1] = OE1 (RAMS11 overexpression clone 1), 0.1 uM drug, 72 h, vs empty vector control
[2] = OE1 (RAMS11 overexpression clone 1), 1 uM drug, 72 h, vs empty vector control
[3] = OE1 (RAMS11 overexpression clone 1), 10 uM drug, 72 h, vs empty vector control
[4] = OE2 (RAMS11 overexpression clone 2), 0.1 uM drug, 72 h, vs empty vector control
[5] = OE2 (RAMS11 overexpression clone 2), 1 uM drug, 72 h, vs empty vector control
[6] = OE2 (RAMS11 overexpression clone 2), 10 uM drug, 72 h, vs empty vector control

## OC[C@H]1O[C@@H](n2cnc3c2NC=NC[C@H]3O)C[C@@H]1O [Pentostatin]
[1]
  Viability Fold Change: 0.9312
[2]
  Viability Fold Change: 0.9502
[3]
  Viability Fold Change: 0.8658
[4]
  Viability Fold Change: 0.9287
[5]
  Viability Fold Change: 0.9777
[6]
  Viability Fold Change: 1.078

## O=C(CCBr)N1CCN(C(=O)CCBr)CC1 [Pipobroman]
[1]
  Viability Fold Change: 0.9413
[2]
  Viability Fold Change: 0.9838
[3]
  Viability Fold Change: 0.9918
[4]
  Viability Fold Change: 0.9432
[5]
  Viability Fold Change: 0.9438
[6]
  Viability Fold Change: 0.8949

## c1cc(CN2CCCNCCNCCCNCC2)ccc1CN1CCCNCCNCCCNCC1 [Plerixafor]
[1]
  Viability Fold Change: 0.9866
[2]
  Viability Fold Change: 1.152
[3]
  Viability Fold Change: 1.057
[4]
  Viability Fold Change: 1.085
[5]
  Viability Fold Change: 1.208
[6]
  Viability Fold Change: 1.062

## Nc1cccc2c1C(=O)N(C1CCC(=O)NC1=O)C2=O (stereo not shown) [Pomalidomide]
[1]
  Viability Fold Change: 0.9335
[2]
  Viability Fold Change: 0.9509
[3]
  Viability Fold Change: 0.9014
[4]
  Viability Fold Change: 0.9444
[5]
  Viability Fold Change: 0.9433
[6]
  Viability Fold Change: 0.933

## Cc1ccc(C(=O)Nc2ccc(CN3CCN(C)CC3)c(C(F)(F)F)c2)cc1C#Cc1cnc2cccnn12 [Ponatinib]
  Viability Fold Change: 1.056 and 0.9383 and 0.9645 and 1.199 and 0.9342 and 1.001

## C#CCC(Cc1cnc2nc(N)nc(N)c2n1)c1ccc(C(=O)N[C@@H](CCC(=O)O)C(=O)O)cc1 (stereo partly shown) [Pralatrexate]
[1]
  Viability Fold Change: 0.7405
[2]
  Viability Fold Change: 0.9216
[3]
  Viability Fold Change: 1.034
[4]
  Viability Fold Change: 0.8579
[5]
  Viability Fold Change: 0.9781
[6]
  Viability Fold Change: 1.119

## CNNCc1ccc(C(=O)NC(C)C)cc1 [Procarbazine]
[1]
  Viability Fold Change: 1.003
[2]
  Viability Fold Change: 1.042
[3]
  Viability Fold Change: 0.9825
[4]
  Viability Fold Change: 0.9328
[5]
  Viability Fold Change: 1.046
[6]
  Viability Fold Change: 0.9303

## O=C(c1ccc(OCCN2CCCCC2)cc1)c1c(-c2ccc(O)cc2)sc2cc(O)ccc12 [Raloxifene]
[1]
  Viability Fold Change: 0.9457
[2]
  Viability Fold Change: 0.9244
[3]
  Viability Fold Change: 0.9067
[4]
  Viability Fold Change: 0.9401
[5]
  Viability Fold Change: 0.9282
[6]
  Viability Fold Change: 0.9671

## CO[C@H]1C[C@@H]2CC[C@@H](C)[C@@](O)(O2)C(=O)C(=O)N2CCCC[C@H]2C(=O)O[C@H]([C@H](C)C[C@@H]2CC[C@@H](O)[C@H](OC)C2)CC(=O)[C@H](C)/C=C(\C)[C@@H](O)[C@@H](OC)C(=O)[C@H](C)C[C@H](C)/C=C/C=C/C=C/1C [Rapamycin]
[1]
  Viability Fold Change: 0.7003
[2]
  Viability Fold Change: 0.7403
[3]
  Viability Fold Change: 0.7222
[4]
  Viability Fold Change: 0.6232
[5]
  Viability Fold Change: 0.772
[6]
  Viability Fold Change: 0.7575

## CNC(=O)c1cc(Oc2ccc(NC(=O)Nc3ccc(Cl)c(C(F)(F)F)c3)c(F)c2)ccn1 [Regorafenib]
[1]
  Viability Fold Change: 0.938
[2]
  Viability Fold Change: 0.9476
[3]
  Viability Fold Change: 1.158
[4]
  Viability Fold Change: 0.9919
[5]
  Viability Fold Change: 1.09
[6]
  Viability Fold Change: 1.143

## C/C=C1\NC(=O)[C@H]2CSSCC/C=C/[C@H](CC(=O)N[C@H](C(C)C)C(=O)N2)OC(=O)[C@H](C(C)C)NC1=O [Romidepsin]
[1]
  Viability Fold Change: 6.243
[2]
  Viability Fold Change: 5.327
[3]
  Viability Fold Change: 4.427
[4]
  Viability Fold Change: 6.211
[5]
  Viability Fold Change: 5.577
[6]
  Viability Fold Change: 4.697

## CNC(=O)c1cc(Oc2ccc(NC(=O)Nc3ccc(Cl)c(C(F)(F)F)c3)cc2)ccn1 [Sorafenib]
[1]
  Viability Fold Change: 0.8542
[2]
  Viability Fold Change: 0.8177
[3]
  Viability Fold Change: 1.022
[4]
  Viability Fold Change: 0.8959
[5]
  Viability Fold Change: 0.8971
[6]
  Viability Fold Change: 1.017

## CN(N=O)C(=O)N[C@@H](C=O)[C@@H](O)[C@H](O)[C@H](O)CO [Streptozocin]
[1]
  Viability Fold Change: 1.06
[2]
  Viability Fold Change: 1.011
[3]
  Viability Fold Change: 0.905
[4]
  Viability Fold Change: 0.9729
[5]
  Viability Fold Change: 1.036
[6]
  Viability Fold Change: 0.9955

## CCN(CC)CCNC(=O)c1c(C)[nH]c(/C=C2\C(=O)Nc3ccc(F)cc32)c1C [Sunitinib]
[1]
  Viability Fold Change: 0.8337
[2]
  Viability Fold Change: 0.8856
[3]
  Viability Fold Change: 0.2329
[4]
  Viability Fold Change: 0.914
[5]
  Viability Fold Change: 0.9165
[6]
  Viability Fold Change: 0.5714

## CC/C(=C(\c1ccccc1)c1ccc(OCCN(C)C)cc1)c1ccccc1 [Tamoxifen Citrate]
[1]
  Viability Fold Change: 1.127
[2]
  Viability Fold Change: 1.144
[3]
  Viability Fold Change: 1.077
[4]
  Viability Fold Change: 1.097
[5]
  Viability Fold Change: 1.08
[6]
  Viability Fold Change: 1.059

## Cn1nnc2c(C(N)=O)ncn2c1=O [Temozolomide]
[1]
  Viability Fold Change: 0.9344
[2]
  Viability Fold Change: 0.9467
[3]
  Viability Fold Change: 0.8777
[4]
  Viability Fold Change: 0.8975
[5]
  Viability Fold Change: 1.032
[6]
  Viability Fold Change: 0.9198

## CO[C@H]1C[C@@H]2CC[C@@H](C)[C@@](O)(O2)C(=O)C(=O)N2CCCC[C@H]2C(=O)O[C@H]([C@H](C)C[C@@H]2CC[C@@H](OC(=O)C(C)(CO)CO)[C@H](OC)C2)CC(=O)[C@H](C)/C=C(\C)[C@@H](O)[C@@H](OC)C(=O)[C@H](C)C[C@H](C)/C=C/C=C/C=C/1C [Temsirolimus]
[1]
  Viability Fold Change: 0.7059
[2]
  Viability Fold Change: 0.6733
[3]
  Viability Fold Change: 0.6861
[4]
  Viability Fold Change: 0.6816
[5]
  Viability Fold Change: 0.7302
[6]
  Viability Fold Change: 0.693

## COc1cc([C@@H]2c3cc4c(cc3[C@@H](O[C@@H]3O[C@@H]5CO[C@@H](c6cccs6)O[C@H]5[C@H](O)[C@H]3O)[C@H]3COC(=O)[C@H]23)OCO4)cc(OC)c1O [Teniopside]
[1]
  Viability Fold Change: 1.038
[2]
  Viability Fold Change: 1.327
[3]
  Viability Fold Change: 2.288
[4]
  Viability Fold Change: 0.9657
[5]
  Viability Fold Change: 1.349
[6]
  Viability Fold Change: 2.261

## O=C1CCC(N2C(=O)c3ccccc3C2=O)C(=O)N1 (stereo not shown) [Thalidomide]
[1]
  Viability Fold Change: 0.9251
[2]
  Viability Fold Change: 0.9878
[3]
  Viability Fold Change: 0.9064
[4]
  Viability Fold Change: 0.8995
[5]
  Viability Fold Change: 1
[6]
  Viability Fold Change: 1.074

## Nc1nc2nc[nH]c2c(=S)[nH]1 [Thioguanine]
[1]
  Viability Fold Change: 0.9423
[2]
  Viability Fold Change: 0.9288
[3]
  Viability Fold Change: 0.9702
[4]
  Viability Fold Change: 0.8995
[5]
  Viability Fold Change: 0.8724
[6]
  Viability Fold Change: 1.01

## S=P(N1CC1)(N1CC1)N1CC1 [Thiotepa]
  Viability Fold Change: 0.7908 and 0.9826 and 0.9401 and 0.9694 and 0.9433 and 0.8817

## CC[C@@]1(O)C(=O)OCc2c1cc1n(c2=O)Cc2cc3c(CN(C)C)c(O)ccc3nc2-1 [Topotecan HCL]
[1]
  Viability Fold Change: 1.11
[2]
  Viability Fold Change: 2.225
[3]
  Viability Fold Change: 3.389
[4]
  Viability Fold Change: 1.018
[5]
  Viability Fold Change: 2.127
[6]
  Viability Fold Change: 2.763

## CC(=O)Nc1cccc(-n2c(=O)n(C3CC3)c(=O)c3c(Nc4ccc(I)cc4F)n(C)c(=O)c(C)c32)c1 [Trametinib]
[1]
  Viability Fold Change: 1.35
[2]
  Viability Fold Change: 1.732
[3]
  Viability Fold Change: 1.975
[4]
  Viability Fold Change: 1.213
[5]
  Viability Fold Change: 1.641
[6]
  Viability Fold Change: 1.886

## CC1=C(/C=C/C(C)=C/C=C/C(C)=C/C(=O)O)C(C)(C)CCC1 [Tretinoin]
[1]
  Viability Fold Change: 1.161
[2]
  Viability Fold Change: 1.226
[3]
  Viability Fold Change: 1.142
[4]
  Viability Fold Change: 1.068
[5]
  Viability Fold Change: 1.373
[6]
  Viability Fold Change: 1.336

## C1CN1c1nc(N2CC2)nc(N2CC2)n1 [Triethylenemelamine]
  Viability Fold Change: 1.287 and 1.238 and 0.9974 and 1.295 and 1.284 and 1.013

## Oc1ncc(N(CCCl)CCCl)c(O)n1 [Uracil mustard]
  Viability Fold Change: 0.8306 and 1.02 and 0.9705 and 0.9647 and 1.048 and 0.932

## CCCCC(=O)OCC(=O)[C@]1(O)Cc2c(O)c3c(c(O)c2[C@@H](O[C@H]2C[C@H](NC(=O)C(F)(F)F)[C@H](O)[C@H](C)O2)C1)C(=O)c1c(OC)cccc1C3=O [Valrubicin]
[1]
  Viability Fold Change: 0.9645
[2]
  Viability Fold Change: 1.163
[3]
  Viability Fold Change: 1.863
[4]
  Viability Fold Change: 0.9166
[5]
  Viability Fold Change: 1.213
[6]
  Viability Fold Change: 1.792

## COc1cc2c(Nc3ccc(Br)cc3F)ncnc2cc1OCC1CCN(C)CC1 [Vandetanib]
[1]
  Viability Fold Change: 0.9025
[2]
  Viability Fold Change: 0.8127
[3]
  Viability Fold Change: 1.181
[4]
  Viability Fold Change: 0.971
[5]
  Viability Fold Change: 0.9162
[6]
  Viability Fold Change: 1.142

## CCCS(=O)(=O)Nc1ccc(F)c(C(=O)c2c[nH]c3ncc(-c4ccc(Cl)cc4)cc23)c1F [Vemurafenib]
[1]
  Viability Fold Change: 0.6921
[2]
  Viability Fold Change: 0.4381
[3]
  Viability Fold Change: 0.569
[4]
  Viability Fold Change: 0.762
[5]
  Viability Fold Change: 0.5468
[6]
  Viability Fold Change: 0.6144

## CC[C@]1(O)C[C@@H]2CN(CCc3c([nH]c4ccccc34)[C@@](C(=O)OC)(c3cc4c(cc3OC)N(C)[C@H]3[C@@](O)(C(=O)OC)[C@H](OC(C)=O)[C@]5(CC)C=CCN6CC[C@]43[C@@H]65)C2)C1 [Vinblastine sulfate]
[1]
  Viability Fold Change: 3.198
[2]
  Viability Fold Change: 3.402
[3]
  Viability Fold Change: 3.682
[4]
  Viability Fold Change: 2.825
[5]
  Viability Fold Change: 3.412
[6]
  Viability Fold Change: 3.815

Source: patent US12024707B2, “Methods and compositions for modulating lncRNAs and methods of treatment based on lncRNA expression” (Washington University, priority 2020, dated 2024)
